The text below walks through data of patent US6325989A, “Form of dipeptidylpeptidase IV (CD26) found in human serum” (Dana-Farber Cancer Institute, Inc., priority 1995, dated 2001).

Assay [1] deals with soluble serum DPPIV/CD26, 175 kDa form, purified from normal human serum. Description: DPPIV activity assay (hydrolysis of Gly-Pro-pNA; Michaelis-Menten kinetics and inhibition). The class given is biochemical. As to the method: (§1) The DPPIV enzyme activities of the rsCD26 and serum DPPIV were analyzed by Michaelis-Menten kinetics by assessing kinetics of hydrolysis of substrate at different concentrations. […] To further exclude the possibility that we had purified irrelevant aminopeptidases which, working in concert or by sequential hydrolysis, could release the pNA chromophore from substrate, we tested a number of substrates which could be hydrolyzed by non-DPPIV aminopeptidases. One candidate for sequential hydrolysis is aminopeptidase M (3.4.11.2), but no hydrolysis of Ala-pNA, Arg-pNA or Leu-pNA was observed and activity by aminopolypeptidase (3.4.11.14) may be similarly excluded. The substrate succinyl-Gly-Pro-pNA was also not hydrolyzed. The only substrate apart from the dipeptide chromatogen Gly-Pro-pNA which could be hydrolyzed was Val-Ala-pNA, which was cleaved by both the serum DPPIV and rsCD26 (relative to rate of hydrolysis of Gly-Pro-pNA, hydrolysis of Val-Ala-pNA was 0.098 and 0.079, for rsCD26 and serum DPPIV, respectively). Although DPPIV primarily hydrolyses dipeptides with a proline in the penultimate position, it is well documented that alanine in the penultimate position may also render a dipeptide sequence susceptible to cleavage by DPPIV (8). […]
The primary substrate used for determining DPPIV activity in all assays was Gly-Pro-p-nitroanilide (Gly-Pro-pNA; Sigma), which is hydrolyzed by DPPIV to release pNA absorbing strongly at 405 nm. […] Inhibition of the hydrolysis of Gly-Pro-pNA was determined in the presence of the specific DPPIV inhibitor Diprotin A (Bachem, King of Prussia, Pa.). […] The pH optimum was determined substituting phosphate buffer (100 mM, pH4.5-pH9) in place of standard incubation buffer.
Serum DPPIV was prepared by isolating from 100 ml of pooled normal human male AB serum the fraction of protein precipitated by 50-70% saturated ammonium sulfate. […] The DPPIV activity was eluted by a 0-0.5M NaCl gradient in equilibration buffer and all DPPIV activity was found in the 10 mM-50 mM NaCl eluate (determined by conductance). […]

The target of assay [2] is T1, recombinant soluble CD26 (rsCD26), full extracellular domain of human T cell membrane CD26/DPPIV, 105 kDa form, from transfected CHO cells (Homo sapiens, UniProt P27487).
T1 construct: The full extracellular domain of T cell membrane-expressed CD26 (rsCD26); made in house; host or cells: transfected CHO cells
Described as above. The class given is biochemical. As to the method: as §1, with “respectively).” for “respectively). Although DPPIV primarily hydrolyses dipeptides with a proline in the penultimate position, it is well documented that alanine in the penultimate position may also render a dipeptide sequence susceptible to cleavage by DPPIV (8).”
The primary substrate used for determining DPPIV activity in all assays was Gly-Pro-p-nitroanilide (Gly-Pro-pNA; Sigma), which is hydrolyzed by DPPIV to release pNA absorbing strongly at 405 nm. […] Inhibition of the hydrolysis of Gly-Pro-pNA was determined in the presence of the specific DPPIV inhibitor Diprotin A (Bachem, King of Prussia, Pa.). […]

The mark [3] stands for this setting: Lineweaver-Burke transformation.
The mark [4] stands for this setting: unit defined at pH7.6 and 20° C.

Residues, ends and D or L forms follow the SMILES beside them. *: point of attachment. pNA = O=[N+]([O-])c1ccc(N*)cc1

T1 sequence (P27487 29-766 limits assumed): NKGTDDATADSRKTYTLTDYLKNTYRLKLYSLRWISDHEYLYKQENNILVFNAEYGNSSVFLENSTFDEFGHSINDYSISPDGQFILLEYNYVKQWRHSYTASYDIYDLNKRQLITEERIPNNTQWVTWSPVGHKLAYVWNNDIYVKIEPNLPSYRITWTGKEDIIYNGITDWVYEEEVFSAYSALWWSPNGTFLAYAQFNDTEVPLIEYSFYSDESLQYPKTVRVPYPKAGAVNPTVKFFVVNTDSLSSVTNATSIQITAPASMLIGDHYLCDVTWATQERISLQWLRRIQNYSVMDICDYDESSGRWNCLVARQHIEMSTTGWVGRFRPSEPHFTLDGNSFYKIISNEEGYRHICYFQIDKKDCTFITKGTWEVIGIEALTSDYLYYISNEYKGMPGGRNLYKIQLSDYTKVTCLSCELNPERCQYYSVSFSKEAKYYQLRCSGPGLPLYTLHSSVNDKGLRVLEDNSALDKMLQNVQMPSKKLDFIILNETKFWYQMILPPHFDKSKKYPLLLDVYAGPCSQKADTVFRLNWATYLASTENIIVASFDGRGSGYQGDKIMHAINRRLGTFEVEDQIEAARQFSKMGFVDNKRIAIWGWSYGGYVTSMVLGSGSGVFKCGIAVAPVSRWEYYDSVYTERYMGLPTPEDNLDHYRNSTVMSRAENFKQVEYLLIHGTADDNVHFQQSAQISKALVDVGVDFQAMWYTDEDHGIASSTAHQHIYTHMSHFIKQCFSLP

Regarding `CC[C@H](C)[C@H](N)C(=O)N1CCC[C@H]1C(=O)N[C@H](C(=O)O)[C@@H](C)CC` [Diprotin A], in assay [1] (substrate Gly-Pro-pNA), the IC50 (commonly the concentration that inhibits the measured activity by half) worked out at 250 µM.
For the compound `NCC(=O)N1CCC[C@H]1C(=O)Nc1ccc([N+](=O)[O-])cc1` [Gly-Pro-pNA, Gly-Pro-p-nitroanilide] (H-Gly-Pro-pNA), the Km in assay [2] (setting [3]) and in assay [1] (setting [3]) was 280 µM in each case. Further, the entries for the “Vmax, using Gly-Pro-pNA as substrate” value in assay [2] (setting [4]) and in assay [1] (setting [4]) were 1.52 U/nmol rsCD26 and 0.65 U/nmol serum DPPIV, respectively.
